{"source": "PubChem BioAssay (NCI)", "experiment_in_all_cases": "NCI-60 cell line screen, 48 h", "key": {"M19-MEL melanoma": {"system": "M19-MEL melanoma"}, "M14 melanoma": {"system": "M14 melanoma"}, "SF-295 CNS": {"system": "SF-295 CNS"}, "OVCAR-8 ovarian": {"system": "OVCAR-8 ovarian"}, "MALME-3M melanoma": {"system": "MALME-3M melanoma"}, "LOX IMVI melanoma": {"system": "LOX IMVI melanoma"}, "KM20L2 colon": {"system": "KM20L2 colon"}, "NCI-H23 lung": {"system": "NCI-H23 lung"}, "CCRF-CEM leukemia": {"system": "CCRF-CEM leukemia"}, "MOLT-4 leukemia": {"system": "MOLT-4 leukemia"}, "SW-620 colon": {"system": "SW-620 colon"}, "SF-268 CNS": {"system": "SF-268 CNS"}, "SK-MEL-28 melanoma": {"system": "SK-MEL-28 melanoma"}, "786-0 renal": {"system": "786-0 renal"}, "OVCAR-4 ovarian": {"system": "OVCAR-4 ovarian"}, "SK-MEL-2 melanoma": {"system": "SK-MEL-2 melanoma"}, "OVCAR-5 ovarian": {"system": "OVCAR-5 ovarian"}, "HL-60(TB) leukemia": {"system": "HL-60(TB) leukemia"}, "COLO 205 colon": {"system": "COLO 205 colon"}, "SN12C renal": {"system": "SN12C renal"}, "SNB-78 CNS": {"system": "SNB-78 CNS"}, "NCI-H226 lung": {"system": "NCI-H226 lung"}, "SK-MEL-5 melanoma": {"system": "SK-MEL-5 melanoma"}, "DLD-1 colon": {"system": "DLD-1 colon"}, "A549 NSCLC": {"system": "A549 NSCLC"}, "SNB-75 CNS": {"system": "SNB-75 CNS"}, "A498 renal": {"system": "A498 renal"}, "NCI-H460 lung": {"system": "NCI-H460 lung"}, "HCT-116 colon": {"system": "HCT-116 colon"}, "RXF 393 renal": {"system": "RXF 393 renal"}, "XF 498 CNS": {"system": "XF 498 CNS"}, "HT29 colon": {"system": "HT29 colon"}, "TK-10 renal": {"system": "TK-10 renal"}, "UACC-62 melanoma": {"system": "UACC-62 melanoma"}, "UACC-257 melanoma": {"system": "UACC-257 melanoma"}, "HCC-2998 colon": {"system": "HCC-2998 colon"}, "LXFL 529 NSCLC": {"system": "LXFL 529 NSCLC"}, "SF-539 CNS": {"system": "SF-539 CNS"}, "HOP-62 NSCLC": {"system": "HOP-62 NSCLC"}, "U251 CNS": {"system": "U251 CNS"}, "SNB-19 CNS": {"system": "SNB-19 CNS"}, "ACHN renal": {"system": "ACHN renal"}, "DMS 273 small cell lung": {"system": "DMS 273 small cell lung"}, "KM12 colon": {"system": "KM12 colon"}, "SK-OV-3 ovarian": {"system": "SK-OV-3 ovarian"}, "SR leukemia": {"system": "SR leukemia"}, "HCT-15 colon": {"system": "HCT-15 colon"}, "K-562 leukemia": {"system": "K-562 leukemia"}, "OVCAR-3 ovarian": {"system": "OVCAR-3 ovarian"}, "HOP-92 NSCLC": {"system": "HOP-92 NSCLC"}, "IGROV1 ovarian": {"system": "IGROV1 ovarian"}, "DMS 114 small cell lung": {"system": "DMS 114 small cell lung"}, "RPMI-8226 leukemia": {"system": "RPMI-8226 leukemia"}, "HOP-18 NSCLC": {"system": "HOP-18 NSCLC"}, "CAKI-1 renal": {"system": "CAKI-1 renal"}, "UO-31 renal": {"system": "UO-31 renal"}, "EKVX NSCLC": {"system": "EKVX NSCLC"}}, "note": "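Protocol summary: plate cells (96-well), add compound at 5 concentrations, incubate 48 h, interpolate endpoints linearly. Definition used: TGI = concentration required for complete inhibition of growth.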", "data": [{"smiles": "CC(=O)OC1C/C(C)=C/CCC(C)/C=C/C2(C)CCC(C(C)(C)O)C12", "note": "(configuration not stated)", "values": [{"measurement": "TGI", "setting": "M19-MEL melanoma", "value": 88.6, "unit": "µM"}, {"measurement": "TGI", "setting": "M14 melanoma", "value": "> 100", "unit": "µM"}, {"measurement": "TGI", "setting": "SF-295 CNS", "value": "> 100", "unit": "µM"}, {"measurement": "TGI", "setting": "OVCAR-8 ovarian", "value": "> 100", "unit": "µM"}, {"measurement": "TGI", "setting": "MALME-3M melanoma", "value": "> 100", "unit": "µM"}, {"measurement": "TGI", "setting": "LOX IMVI melanoma", "value": "> 100", "unit": "µM"}, {"measurement": "TGI", "setting": "KM20L2 colon", "value": "> 100", "unit": "µM"}, {"measurement": "TGI", "setting": "NCI-H23 lung", "value": "> 100", "unit": "µM"}, {"measurement": "TGI", "setting": "CCRF-CEM leukemia", "value": "> 100", "unit": "µM"}, {"measurement": "TGI", "setting": "MOLT-4 leukemia", "value": "> 100", "unit": "µM"}, {"measurement": "TGI", "setting": "SW-620 colon", "value": "> 100", "unit": "µM"}, {"measurement": "TGI", "setting": "SF-268 CNS", "value": "> 100", "unit": "µM"}, {"measurement": "TGI", "setting": "SK-MEL-28 melanoma", "value": "> 100", "unit": "µM"}, {"measurement": "TGI", "setting": "786-0 renal", "value": "> 100", "unit": "µM"}, {"measurement": "TGI", "setting": "OVCAR-4 ovarian", "value": "> 100", "unit": "µM"}, {"measurement": "TGI", "setting": "SK-MEL-2 melanoma", "value": "> 100", "unit": "µM"}, {"measurement": "TGI", "setting": "OVCAR-5 ovarian", "value": "> 100", "unit": "µM"}, {"measurement": "TGI", "setting": "HL-60(TB) leukemia", "value": 55.5, "unit": "µM"}, {"measurement": "TGI", "setting": "COLO 205 colon", "value": "> 100", "unit": "µM"}, {"measurement": "TGI", "setting": "SN12C renal", "value": 96.4, "unit": "µM"}, {"measurement": "TGI", "setting": "SNB-78 CNS", "value": "> 100", "unit": "µM"}, {"measurement": "TGI", "setting": "NCI-H226 lung", "value": "> 100", "unit": "µM"}, {"measurement": "TGI", "setting": "SK-MEL-5 melanoma", "value": "> 100", "unit": "µM"}, {"measurement": "TGI", "setting": "DLD-1 colon", "value": "> 100", "unit": "µM"}, {"measurement": "TGI", "setting": "A549 NSCLC", "value": "> 100", "unit": "µM"}, {"measurement": "TGI", "setting": "SNB-75 CNS", "value": "> 100", "unit": "µM"}, {"measurement": "TGI", "setting": "A498 renal", "value": "> 100", "unit": "µM"}, {"measurement": "TGI", "setting": "NCI-H460 lung", "value": "> 100", "unit": "µM"}, {"measurement": "TGI", "setting": "HCT-116 colon", "value": 77.1, "unit": "µM"}, {"measurement": "TGI", "setting": "RXF 393 renal", "value": 53.3, "unit": "µM"}, {"measurement": "TGI", "setting": "XF 498 CNS", "value": "> 100", "unit": "µM"}, {"measurement": "TGI", "setting": "HT29 colon", "value": "> 100", "unit": "µM"}, {"measurement": "TGI", "setting": "TK-10 renal", "value": "> 100", "unit": "µM"}, {"measurement": "TGI", "setting": "UACC-62 melanoma", "value": "> 100", "unit": "µM"}, {"measurement": "TGI", "setting": "UACC-257 melanoma", "value": "> 100", "unit": "µM"}, {"measurement": "TGI", "setting": "HCC-2998 colon", "value": "> 100", "unit": "µM"}, {"measurement": "TGI", "setting": "LXFL 529 NSCLC", "value": "> 100", "unit": "µM"}, {"measurement": "TGI", "setting": "SF-539 CNS", "value": "> 100", "unit": "µM"}, {"measurement": "TGI", "setting": "HOP-62 NSCLC", "value": "> 100", "unit": "µM"}, {"measurement": "TGI", "setting": "U251 CNS", "value": "> 100", "unit": "µM"}, {"measurement": "TGI", "setting": "SNB-19 CNS", "value": "> 100", "unit": "µM"}, {"measurement": "TGI", "setting": "ACHN renal", "value": "> 100", "unit": "µM"}, {"measurement": "TGI", "setting": "DMS 273 small cell lung", "value": "> 100", "unit": "µM"}, {"measurement": "TGI", "setting": "KM12 colon", "value": "> 100", "unit": "µM"}, {"measurement": "TGI", "setting": "SK-OV-3 ovarian", "value": "> 100", "unit": "µM"}, {"measurement": "TGI", "setting": "SR leukemia", "value": 47.2, "unit": "µM"}, {"measurement": "TGI", "setting": "HCT-15 colon", "value": "> 100", "unit": "µM"}, {"measurement": "TGI", "setting": "K-562 leukemia", "value": "> 100", "unit": "µM"}, {"measurement": "TGI", "setting": "OVCAR-3 ovarian", "value": "> 100", "unit": "µM"}, {"measurement": "TGI", "setting": "HOP-92 NSCLC", "value": 51.4, "unit": "µM"}, {"measurement": "TGI", "setting": "IGROV1 ovarian", "value": "> 100", "unit": "µM"}, {"measurement": "TGI", "setting": "DMS 114 small cell lung", "value": "> 100", "unit": "µM"}, {"measurement": "TGI", "setting": "RPMI-8226 leukemia", "value": 71.7, "unit": "µM"}, {"measurement": "TGI", "setting": "HOP-18 NSCLC", "value": "> 100", "unit": "µM"}, {"measurement": "TGI", "setting": "CAKI-1 renal", "value": "> 100", "unit": "µM"}, {"measurement": "TGI", "setting": "UO-31 renal", "value": "> 100", "unit": "µM"}, {"measurement": "TGI", "setting": "EKVX NSCLC", "value": "> 100", "unit": "µM"}]}]}
